Test results from patent publication US20230332252A1, “CELL-FREE BIOSENSORS WITH DNA STRAND DISPLACEMENT CIRCUITS AND POLYMERASE STRAND RECYCLING (PSR)” (Northwestern University, priority 2021, published 2023).

Experiments:
TetR = target: T1, TetR (Escherichia coli, UniProt P04483); assay: biochemical
T1 construct: made in house; host or cells: E. coli Rosetta 2(DE3)pLysS, pET-28c backbone (pJBL701)
Protocol: To test if this spacing remained important in the TMSD platform, we used TetR as our model aTF to determine the optimum spacing for efficient repression in the presence of TetR and efficient transcription in the absence of TetR [41]. We used the native sequence that follows the canonical T7 RNAP promoter as a spacer in 2-bp increments from 0 to 10-bp, immediately followed by the tetO sequence and InvadeR sequence (FIG. 3a). IVT reactions were set up using 50 nM DNA template with or without purified recombinant TetR protein in 100-fold excess of the DNA template. […]
Using the 2-bp spacer, we next determined whether TetR can be de-repressed with its cognate ligand, anhydrotetracycline (aTc) to allow transcription of InvadeR (FIG. 3c). […]
Homemade IVT reactions were set up by adding the following components listed at their final concentration: IVT buffer (40 mM Tris-HCl pH 8, 8 mM MgCl2, 10 mM DTT, 20 mM NaCl, and 2 mM spermidine), 11.4 mM NTPs pH 7.5, 0.3 U thermostable inorganic pyrophosphatase (#M0296S, New England Biolabs), transcription template, DNA gate(s) and MilliQ ultrapure H2O to a total volume of 20 μL. […] Immediately prior to plate reader measurements, 2 ng of T7 RNAP and, optionally, a ligand at the indicated concentration were added to the reaction.

SmtB = target: T2, SmtB (Synechococcus elongatus, UniProt P30340); assay: SmtB-regulated in vitro transcription of InvadeR with TMSD fluorescence output; assay type: biochemical; conditions: improved smtO-hairpin-InvadeR design, low background signal
T2 construct: 6xHis (C); made in house; host or cells: E. coli Rosetta 2(DE3)pLysS, pET-28c backbone (pJBL725)
T2 sequence (P30340 with tags, fused parts or gaps): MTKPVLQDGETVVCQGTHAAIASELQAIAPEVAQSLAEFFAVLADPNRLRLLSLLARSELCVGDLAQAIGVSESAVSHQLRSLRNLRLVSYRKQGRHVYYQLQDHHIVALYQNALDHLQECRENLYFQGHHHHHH
Protocol: (§1) In addition to TetR, we chose TtgR [44] and SmtB [45] as representative aTFs of the MarR family and SmtB/ArsR family, respectively. We placed the cognate operator sequence of each aTF 2-bp downstream of the T7 promoter and immediately upstream of the InvadeR sequences (FIG. 4a-c). When tetracycline was used to induce TetR-regulated reactions, we observed a strong and robust fluorescent signal visible in ˜10 minutes (FIG. 4d, FIG. 13a). […] We note that we observed a slight decrease in the induction speed from the TtgR-regulated reactions compared to that of the TetR-regulated reactions, likely due to the reduced ttgO DNA template concentration needed to accommodate TtgR's relatively weak binding affinity to its operator sequence.
We were immediately successful in adapting the system to TetR and TtgR (FIG. 4a, b). […]
(§2) Regulated IVT reactions additionally included a purified aTF at the indicated concentration and were equilibrated at 37° C. for ˜10 minutes. Immediately prior to plate reader measurements, 2 ng of T7 RNAP and, optionally, a ligand at the indicated concentration were added to the reaction. Reactions were then characterized on a plate reader as described in Plate reader quantification and micromolar equivalent fluorescein (MEF) standardization.

TtgR = target: T3, TtgR (Pseudomonas putida, UniProt Q88N29); assay: TtgR-regulated in vitro transcription of InvadeR with TMSD fluorescence output; assay type: biochemical; conditions: TtgR-regulated reactions, with versus without ligand
T3 construct: made in house; host or cells: E. coli Rosetta 2(DE3)pLysS, pET-28c backbone (pJBL721)
Protocol: as §1, §2

T3 sequence (Q88N29 other isoform, or with tags, fused parts or gaps): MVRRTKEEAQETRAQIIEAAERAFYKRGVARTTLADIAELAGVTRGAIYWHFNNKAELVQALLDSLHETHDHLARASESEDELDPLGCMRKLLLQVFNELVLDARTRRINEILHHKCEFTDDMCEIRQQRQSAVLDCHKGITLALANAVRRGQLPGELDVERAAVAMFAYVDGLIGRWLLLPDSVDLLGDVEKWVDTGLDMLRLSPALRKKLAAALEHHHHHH

Compound `Cc1c2c(c(O)c3c(O)cccc13)C(=O)[C@]1(O)C(=O)C(C(N)=O)=C(O)[C@@H](N(C)C)[C@@H]1C2` [aTc, anhydrotetracycline] has an EC50 (TetR) of 2.5 to 5 µM.
`O=S(=O)([O-])[O-].[Zn+2]` [ZnSO4] was tested, and the “fluorescence activation by ligand” value (SmtB) was “clear activation”.
With `O=C1C[C@@H](c2ccc(O)cc2)Oc2cc(O)cc(O)c21` [naringenin] the “fluorescence activation by ligand” value (TtgR) was “robust fluorescence activation only in the presence of the ligand”.
